Assay results taken from patent US10752612B2, “PLK4 inhibitors” (LUDWIG INSTITUTE FOR CANCER RESEARCH LTD, priority 2015, dated 2020).
Read-outs that look alike come from different tables or passages of the source.

Columns and labels:
Aurora B = molecular target: T1, Aurora B (Homo sapiens, UniProt Q96GD4); assay: Aurora B radiometric kinase assay (Reaction Biology); format: biochemical
T1 construct: Reaction Biology (Malvern, Pa.), contract assay
Method: Aurora B and other radiometric kinase assays were performed by Reaction Biology (Malvern, Pa.).

LRRK2 = molecular target: T2, LRRK2 (Homo sapiens, UniProt Q5S007); assay: Radiometric kinase assay, off-target LRRK2; format: biochemical; conditions: off-target from DiscoveRx kinome profiling
T2 construct: Reaction Biology (Malvern, Pa.), contract assay
T2 sequence (Q5S007 whole entry): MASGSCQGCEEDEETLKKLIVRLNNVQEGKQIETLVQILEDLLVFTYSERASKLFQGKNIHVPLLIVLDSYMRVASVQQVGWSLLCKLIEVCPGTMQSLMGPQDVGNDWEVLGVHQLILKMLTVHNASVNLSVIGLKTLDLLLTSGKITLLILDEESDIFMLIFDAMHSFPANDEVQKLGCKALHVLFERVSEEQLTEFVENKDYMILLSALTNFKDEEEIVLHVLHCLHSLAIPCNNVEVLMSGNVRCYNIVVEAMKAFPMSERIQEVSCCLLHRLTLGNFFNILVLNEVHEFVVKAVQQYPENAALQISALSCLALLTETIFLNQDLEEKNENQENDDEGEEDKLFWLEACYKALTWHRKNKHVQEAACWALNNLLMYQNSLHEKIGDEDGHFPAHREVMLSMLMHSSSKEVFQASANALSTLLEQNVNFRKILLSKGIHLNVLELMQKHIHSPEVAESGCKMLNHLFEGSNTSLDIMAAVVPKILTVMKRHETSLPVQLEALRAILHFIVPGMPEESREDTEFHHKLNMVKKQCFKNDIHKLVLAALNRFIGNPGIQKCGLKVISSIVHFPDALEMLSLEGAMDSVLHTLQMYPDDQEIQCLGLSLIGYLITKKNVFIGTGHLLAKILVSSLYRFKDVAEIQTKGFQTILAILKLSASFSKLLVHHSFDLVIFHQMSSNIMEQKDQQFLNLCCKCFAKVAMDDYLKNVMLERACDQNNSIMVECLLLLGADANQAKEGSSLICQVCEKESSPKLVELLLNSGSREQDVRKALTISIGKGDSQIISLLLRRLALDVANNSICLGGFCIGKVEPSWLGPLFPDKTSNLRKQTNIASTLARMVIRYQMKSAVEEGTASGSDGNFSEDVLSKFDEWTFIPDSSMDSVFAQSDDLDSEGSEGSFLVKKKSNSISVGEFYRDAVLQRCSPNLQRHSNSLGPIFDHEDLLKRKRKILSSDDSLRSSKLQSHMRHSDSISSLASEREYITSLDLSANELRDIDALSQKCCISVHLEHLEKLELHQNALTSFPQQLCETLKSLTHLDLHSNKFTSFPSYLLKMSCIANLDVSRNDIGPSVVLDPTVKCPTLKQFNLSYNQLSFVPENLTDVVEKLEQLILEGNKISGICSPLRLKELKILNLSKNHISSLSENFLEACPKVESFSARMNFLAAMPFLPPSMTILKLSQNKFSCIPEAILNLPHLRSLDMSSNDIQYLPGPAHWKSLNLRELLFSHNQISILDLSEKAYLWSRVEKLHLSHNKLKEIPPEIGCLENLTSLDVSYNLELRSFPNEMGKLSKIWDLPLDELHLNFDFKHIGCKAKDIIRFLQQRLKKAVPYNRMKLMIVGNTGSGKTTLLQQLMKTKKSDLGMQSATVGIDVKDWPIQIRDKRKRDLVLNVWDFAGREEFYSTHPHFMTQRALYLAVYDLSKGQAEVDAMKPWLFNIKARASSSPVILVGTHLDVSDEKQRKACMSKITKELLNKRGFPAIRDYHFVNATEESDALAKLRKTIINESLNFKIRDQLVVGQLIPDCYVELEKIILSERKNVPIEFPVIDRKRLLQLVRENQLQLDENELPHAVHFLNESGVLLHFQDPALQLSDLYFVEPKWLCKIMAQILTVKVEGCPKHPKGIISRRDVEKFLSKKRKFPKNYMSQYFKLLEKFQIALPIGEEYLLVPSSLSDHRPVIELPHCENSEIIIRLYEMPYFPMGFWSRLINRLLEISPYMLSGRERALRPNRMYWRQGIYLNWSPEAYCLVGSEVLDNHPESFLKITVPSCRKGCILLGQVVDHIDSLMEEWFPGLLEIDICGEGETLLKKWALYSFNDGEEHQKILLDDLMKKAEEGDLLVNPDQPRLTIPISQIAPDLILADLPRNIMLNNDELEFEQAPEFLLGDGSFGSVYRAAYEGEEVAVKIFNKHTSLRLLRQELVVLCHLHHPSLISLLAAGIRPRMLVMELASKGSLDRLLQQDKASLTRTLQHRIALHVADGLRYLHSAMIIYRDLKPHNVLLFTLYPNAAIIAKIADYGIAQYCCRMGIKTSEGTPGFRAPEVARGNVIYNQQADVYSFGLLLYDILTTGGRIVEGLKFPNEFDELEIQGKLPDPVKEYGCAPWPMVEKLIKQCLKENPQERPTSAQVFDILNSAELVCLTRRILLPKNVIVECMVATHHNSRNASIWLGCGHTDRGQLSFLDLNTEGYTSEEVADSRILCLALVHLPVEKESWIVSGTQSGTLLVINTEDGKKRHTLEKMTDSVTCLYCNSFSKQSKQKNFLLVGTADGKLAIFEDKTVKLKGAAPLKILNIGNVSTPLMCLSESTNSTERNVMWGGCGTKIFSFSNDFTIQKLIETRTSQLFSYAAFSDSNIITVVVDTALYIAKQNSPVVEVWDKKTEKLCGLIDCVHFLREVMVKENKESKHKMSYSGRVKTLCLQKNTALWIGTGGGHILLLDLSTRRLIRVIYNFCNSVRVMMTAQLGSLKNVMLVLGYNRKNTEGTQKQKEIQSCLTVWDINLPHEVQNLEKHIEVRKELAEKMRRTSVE
Method: (§1) Aurora B and other radiometric kinase assays were performed by Reaction Biology (Malvern, Pa.). Kinome profiling of centrinone and centrinone-B was performed by DiscoveRx (San Diego, Calif.).

ROS/ROS1 = ROS/ROS1 (Homo sapiens, UniProt P08922); assay: Radiometric kinase assay, off-target ROS/ROS1; format: biochemical; conditions: off-target from DiscoveRx kinome profiling
Method: as §1

FLT4/VEGFR3 = FLT4/VEGFR3 (Homo sapiens, UniProt P35916); assay: Radiometric kinase assay, off-target FLT4/VEGFR3; format: biochemical; conditions: off-target from DiscoveRx kinome profiling
Method: as §1

RET = molecular target: T3, RET (Homo sapiens, UniProt P07949); assay: Radiometric kinase assay, off-target RET; format: biochemical; conditions: off-target from DiscoveRx kinome profiling
T3 construct: Reaction Biology (Malvern, Pa.), contract assay
T3 sequence (P07949 29-1114): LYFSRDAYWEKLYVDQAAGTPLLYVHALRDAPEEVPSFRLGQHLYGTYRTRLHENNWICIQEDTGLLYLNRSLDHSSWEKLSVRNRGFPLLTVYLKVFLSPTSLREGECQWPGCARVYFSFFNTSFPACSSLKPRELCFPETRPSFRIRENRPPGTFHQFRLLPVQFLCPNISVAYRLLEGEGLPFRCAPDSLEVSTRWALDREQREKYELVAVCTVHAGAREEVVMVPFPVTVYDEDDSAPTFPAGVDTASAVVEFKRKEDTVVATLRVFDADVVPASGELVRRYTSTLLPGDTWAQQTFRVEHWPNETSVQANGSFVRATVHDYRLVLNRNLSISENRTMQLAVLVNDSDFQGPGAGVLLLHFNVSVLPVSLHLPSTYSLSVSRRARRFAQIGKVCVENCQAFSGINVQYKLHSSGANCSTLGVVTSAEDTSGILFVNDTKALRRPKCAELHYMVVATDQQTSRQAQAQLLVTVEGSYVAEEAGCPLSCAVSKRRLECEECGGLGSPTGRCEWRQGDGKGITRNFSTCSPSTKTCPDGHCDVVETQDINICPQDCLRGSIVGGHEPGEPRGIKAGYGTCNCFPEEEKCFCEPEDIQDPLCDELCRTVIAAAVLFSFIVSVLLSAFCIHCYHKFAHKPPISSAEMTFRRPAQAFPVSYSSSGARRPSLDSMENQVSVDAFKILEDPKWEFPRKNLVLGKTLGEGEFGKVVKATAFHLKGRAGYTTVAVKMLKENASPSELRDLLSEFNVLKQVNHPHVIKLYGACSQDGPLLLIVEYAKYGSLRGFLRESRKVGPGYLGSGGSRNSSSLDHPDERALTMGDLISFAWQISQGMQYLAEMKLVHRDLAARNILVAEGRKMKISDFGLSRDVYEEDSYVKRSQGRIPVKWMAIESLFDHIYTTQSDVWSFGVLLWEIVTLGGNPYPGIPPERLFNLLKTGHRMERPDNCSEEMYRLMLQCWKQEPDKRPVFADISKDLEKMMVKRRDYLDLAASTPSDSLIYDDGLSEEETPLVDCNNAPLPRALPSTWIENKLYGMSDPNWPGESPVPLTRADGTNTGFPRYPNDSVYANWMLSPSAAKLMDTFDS
Method: as §1

JAK2 = molecular target: T4, JAK2 (Homo sapiens, UniProt O60674); assay: Radiometric kinase assay, off-target JAK2; format: biochemical; conditions: off-target from DiscoveRx kinome profiling
T4 construct: Reaction Biology (Malvern, Pa.), contract assay
T4 sequence (O60674 whole entry): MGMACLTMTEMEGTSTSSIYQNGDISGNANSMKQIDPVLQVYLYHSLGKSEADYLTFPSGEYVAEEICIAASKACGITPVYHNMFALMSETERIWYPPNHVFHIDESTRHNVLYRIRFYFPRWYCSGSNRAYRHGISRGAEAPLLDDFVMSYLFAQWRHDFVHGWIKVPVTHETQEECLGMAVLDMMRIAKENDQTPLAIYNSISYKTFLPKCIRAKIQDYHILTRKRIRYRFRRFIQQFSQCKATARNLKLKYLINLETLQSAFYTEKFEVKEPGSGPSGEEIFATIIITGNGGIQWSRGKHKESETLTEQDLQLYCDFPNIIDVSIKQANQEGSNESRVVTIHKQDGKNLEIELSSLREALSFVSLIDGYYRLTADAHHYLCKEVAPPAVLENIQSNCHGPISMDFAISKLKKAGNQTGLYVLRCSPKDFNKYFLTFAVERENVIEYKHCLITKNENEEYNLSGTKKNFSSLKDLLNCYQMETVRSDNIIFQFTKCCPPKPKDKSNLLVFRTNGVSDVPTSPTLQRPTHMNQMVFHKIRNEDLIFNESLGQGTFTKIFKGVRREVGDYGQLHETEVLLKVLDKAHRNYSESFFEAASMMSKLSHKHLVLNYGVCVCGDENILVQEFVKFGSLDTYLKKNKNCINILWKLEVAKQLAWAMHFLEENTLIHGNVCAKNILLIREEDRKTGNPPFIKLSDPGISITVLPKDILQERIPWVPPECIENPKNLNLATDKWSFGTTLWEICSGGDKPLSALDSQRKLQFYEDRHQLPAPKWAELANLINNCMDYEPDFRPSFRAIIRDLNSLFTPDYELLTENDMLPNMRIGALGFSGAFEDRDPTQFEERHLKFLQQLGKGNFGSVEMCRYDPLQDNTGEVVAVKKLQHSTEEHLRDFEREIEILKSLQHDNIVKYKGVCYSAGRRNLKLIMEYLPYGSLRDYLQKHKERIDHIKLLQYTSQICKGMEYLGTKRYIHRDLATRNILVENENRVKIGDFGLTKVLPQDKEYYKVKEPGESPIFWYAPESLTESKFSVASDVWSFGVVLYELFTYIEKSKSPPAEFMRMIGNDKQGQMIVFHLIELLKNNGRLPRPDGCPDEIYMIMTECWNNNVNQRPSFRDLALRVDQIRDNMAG
Method: as §1

[1] = tested on: full-length mouse Plk4-YFP; assay: Plk4 stabilization assay, Plk4-YFP DLD-1 cells; format: cell-based, human; conditions: 25 nM or 100 nM, 24 hours
Method: Plk4 stabilization assay. Expression was induced in Plk4-YFP DLD-1 cells using 1 μg/ml doxycycline. At the same time, cells were treated with the indicated concentrations of compounds. Cells were incubated for 24 hours before harvesting for Western blotting (see below).
Western blotting. […] Cell extracts were stored at −80° C. until use.

[2] = tested on: Xenopus multiciliated cells; assay: Multiciliation assay in Xenopus embryos; format: in vivo
Method: Multiciliation assay in Xenopus embryos. Xenopus embryos were obtained by in vitro fertilization using standard protocols (49) approved by the Northwestern University Institutional Animal Care and Use Committee. Fertilized Xenopus embryos were injected with mRNA encoding the centriole marker Centrin4-GFP (333 pg/embryo) and a Dexamethasone-inducible Multicilin (hGR 3′MCI; 160 pg/embryo) (50, 51). […] Embryos were treated for 13 hours at room temperature, fixed in 4% paraformaldehyde and treated with the actin stain phalloidin. Confocal image stacks were collected using a Nikon AIR microscope and centriole numbers were manually quantified in Nikon Elements software. For each condition, centriole numbers were quantified from approximately 100 cells from at least 3 embryos.

[3] = tested on: wild-type Plk4-GFP NIH/3T3 cells; assay: Centriole overduplication assay, NIH/3T3 overexpressing wild-type Plk4-GFP; format: cell-based, mouse
Method: For generation of Plk4-GFP inducible NIH/3T3 cells, a mouse Plk4 cDNA C-terminally fused to eGFP was cloned into the lentiviral vector pLVX-TRE3G (Clontech). The G95L point mutation was generated by Quikchange mutagenesis (Agilent Technologies). Plasmids were transfected into HEK-293T cells using the Lenti-X HTX packaging system (Clontech), following manufacturer's instructions. 48 hours after transfection, virus-containing culture supernatant was harvested and added to the growth medium of Tet-On 3G NIH/3T3 cells (Clontech)+8 μg/ml polybrene (EMD Millipore).
Centriole overduplication assay. Tet-On 3G NIH/3T3 cells (Clontech) stably transduced with GFP, Plk4-GFP or Plk4(G95L)-GFP were seeded onto coverslips in a 12-well plate at 30,000 cells/well. Transgene expression was induced with 1 μg/ml doxycycline. […] Treated cells were incubated for 40 hours, and then washed with PBS and fixed in 100% methanol (−20° C., 5 minutes). Fixed samples were stained for γ-tubulin and Cep192, and mounted onto slides. Image acquisition and deconvolution were performed on the DeltaVision system equipped with a 100×1.3 NA U-PlanApo objective. Subsequent image processing was performed in ImageJ.

RPE1 cells = assay: Analysis of mitosis and daughter cell fate, RPE1; format: cell-based, human
Method: Analysis of mitosis and daughter cell fate. […] Cells were seeded into 96-well cycloolefin plates at 5000 cells/well, 8-10 hours before imaging. Movies were acquired on the CV1000 with a 40×0.95 NA U-PlanApo objective. The imaging chamber was maintained at 37° C. and 5% CO2. Image acquisition and data analysis were performed using CellVoyager software. 20 fields/well were imaged. For HeLa and NIH/3T3 cells, 5×2 μm z-sections in the GFP (25% power, 125 ms, 30% gain) and RFP (25% power, 100 ms, 30% gain) channels were captured in each field, at 5-minute intervals for 24 hours. For RPE1 cells, 5×2 μm z-sections in the GFP (20% power, 100 ms, 30% gain) and RFP (25% power, 100 ms, 30% gain) channels were captured in each field, at 5-minute intervals for 8 hours. To track RPE1 daughter cell fate, imaging was then switched to 3×4 μm z-sections in the RFP channel only, at 10-minute intervals for 48 hours. Mitosis was measured from nuclear envelope breakdown to anaphase onset (or arrest). Results represent combined measurements of 100 mother cells per condition from 2-4 independent experiments.
To study the correlation between mother cell prometaphase duration and daughter cell fate, RPE1 cells co-expressing centrin-GFP and H2B-RFP were seeded into 96-well cycloolefin plates at 5000 cells/well, 8-10 hours before imaging. Cells were treated with 80 nM nocodazole and immediately imaged on the CV1000 system with a 40×0.95 NA U-PlanApo objective. The imaging chamber was maintained at 37° C. and 5% CO2. 20 fields/well were imaged. 5×2 Lm z-sections in the GFP (20% power, 100 ms, 30% gain) and RFP (25% power, 100 ms, 30% gain) channels were captured in each field, at 5-minute intervals for 6 hours. The plate was then removed from the microscope, and wells were washed 6 times with warm medium. The plate was returned to the microscope, and imaging was resumed, capturing 3×4 Lm z-sections in the RFP channel only, at 10-minute intervals for 50 hours. To study the effect of chromosome missegregation on daughter cell fate, cells were treated with 1 LM NMS-P715 to inhibit the spindle assembly checkpoint kinase Mps1, then imaged as described above. Only mitotic events with clear missegregation (lagging chromosomes and subsequent formation of daughter cells with micronuclei) were analyzed. For both experiments, results represent combined measurements of 100 mother cells from 2 independent experiments.

HeLa cells = assay: Proliferation assay, HeLa; format: cell-based, human
Method: Proliferation assays. For each condition, cells were seeded in triplicate into 6-well plates at 50,000 cells/well. Compounds were added at the indicated concentrations. At 24-hour intervals, 3 wells were harvested per condition. Cell counting was performed using a TC10 automated cell counter (Bio-Rad). Results are from 3 independent experiments.

T1 sequence (Q96GD4 whole entry): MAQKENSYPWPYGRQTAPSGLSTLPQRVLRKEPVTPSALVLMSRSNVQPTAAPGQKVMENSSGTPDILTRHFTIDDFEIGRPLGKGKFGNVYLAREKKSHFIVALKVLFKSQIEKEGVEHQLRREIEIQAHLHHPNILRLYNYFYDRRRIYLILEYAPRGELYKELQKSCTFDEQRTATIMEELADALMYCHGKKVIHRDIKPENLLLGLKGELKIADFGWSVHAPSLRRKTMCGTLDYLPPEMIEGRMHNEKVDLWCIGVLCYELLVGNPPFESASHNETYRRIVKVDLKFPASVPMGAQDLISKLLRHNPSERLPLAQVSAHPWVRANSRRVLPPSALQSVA

SMILES: COc1c(Nc2cc(C)[nH]n2)nc(Sc2ccc(S(=O)(=O)Cc3cccc([N+](=O)[O-])c3F)cc2F)nc1N1CCOCC1 [Centrinone, 2-((2-fluoro-4-((2-fluoro-3-nitrobenzyl)sulfonyl)phenyl)thio)-5-methoxy-N-(5-methyl-1H-pyrazol-3-yl)-6-morpholinopyrimidin-4-amine]
- Ki (Aurora B): 437 nM
- Ki (LRRK2): 2.08 nM
- Ki (ROS/ROS1): 2.77 nM
- Ki (FLT4/VEGFR3): 6.29 nM
- Ki (RET): 13.9 nM
- Ki (JAK2): > 150 nM
- Plk4-YFP stabilization [1]: more substantial stabilization
- centriole number in multiciliated cells [2]: dramatically reduced centriole numbers
- centriole number in multiciliated cells ([2]; listed as centrinone): reduced centriole number
- centriole amplification [3]: blocked centriole amplification
- percentage of daughters not dividing within 48 hours (RPE1 cells; RPE1, FIG. 18A): 1.5%
- 0-centrosome progeny of pioneer 1-centrosome mothers arrested (RPE1 cells; RPE1, acute treatment): 33.0%
- 1-centrosome progeny of pioneer 1-centrosome mothers arrested (RPE1 cells; RPE1, acute treatment): 25.5%
- progeny of pioneer 0-centrosome mothers arrested (RPE1 cells; RPE1, acute treatment): 70%
- proliferation versus controls (HeLa cells; HeLa, first two days after addition): identical to controls
- cell death per generation explaining reduced proliferation rate (HeLa cells; centrosome-less HeLa, theoretical curves versus measurements): 25%
